PMC7221740, “Cyclic Synthetic Peroxides Inhibit Growth of Entomopathogenic Fungus Ascosphaera apis without Toxic Effect on Bumblebees” (Molecules, 2020)
Values after ≈ are worked out from the molar mass of the structure shown.

Legend:
Ascosphaera apis = test: Inhibition of radial growth of Ascosphaera apis mycelium in potato-saccharose agar; assay type: cell-based; details: 72 h; for Mycelium Growth Inhibition (I), % / inhibition at 30 µg/mL: A. apis, concentration 30 mg/L, potato-saccharose agar, 25 °C; for inhibition at 30 µg/mL / EC50: Ascosphaera apis; for inhibition at 30 µg/mL: read-out: Mycelium Growth Inhibition (I), %; for EC50: A. apis mycelium growth, read-out: EC50 (mg/L) ± SD, fungicidal activity
[1] = test system: bumblebees Bombus terrestris L.; test: Ability of bumblebees to fly; assay type: in vivo; details: for Ability of bumblebees to fly in the contact action test: peroxides 30 mg/L in water with DMSO (5% vol.); for Decrease of the ability of bumblebees to fly after consumption of sugar syrup: feeding, versus control group
[2] = test system: bumblebees Bombus terrestris L.; test: Toxic effect on bumblebees (feeding with inverted sugar syrup); assay type: in vivo; details: concentration not given
Method: In the next step, we evaluated the toxicity of active peroxides 1–4, 6 towards bumblebees. Two approaches were used for this purpose. The first approach was a contact action of bumblebees with 30 mg/L solution of peroxide in water containing DMSO (5% vol.). The second approach was feeding of bumblebees with inverted sugar syrup containing peroxides 1–4, 6 (the concentration of peroxide was 30 mg/L) and DMSO (5% vol.). The mortality of bumblebees after their contact with solutions of peroxides 1–4, 6 was absent. […] However, after the consumption of sugar syrup containing difenoconazole or penconazole, the ability of bumblebees to fly was decreased by 1.4 times and 1.3 times, respectively (Figure 4). On average, bumblebees from the control group were in flight for 9 min 28 s. After the consumption of syrup with difenoconazole and penconazole (see Materials and methods), the time spent by insects in flight decreased to 6 min 36 s and 7 min 17 s, respectively.
Peroxide 1–4, 6 (0.3 mg or 3.0 mg) was added to 500 µL of DMSO, and the resulting solution was diluted with 60% inverted sugar syrup to 10 mL. After that, 30 mg/L or 300 mg/L solution of peroxide in inverted sugar syrup containing DMSO (5% vol.) was obtained. A solution of DMSO (500 µL) in 60% inverted sugar syrup was used as the control solution. […]

[3] = test system: bumblebees Bombus terrestris L.; test: Toxic effect on bumblebees (contact action); details: concentration not given
A. apis [4] = test system: A. apis; design: method as in PMID 22263693; details: ref [55]; read-out: IC50 against A. apis; cited from earlier work
A. apis [5] = test system: A. apis; design: method as in PMID 30862950; details: ref [54]; cited from earlier work

Row | SMILES | inhibition at 30 µg/mL (Ascosphaera apis) [%] | EC50 (Ascosphaera apis) [mg/L] | melting point [°C] | further results
1 | CC(C)(C)C(=O)C(Oc1ccc(Cl)cc1)n1cncn1 (centres unmarked) [Triadimefon 9, Triadimefon] | < 100 | 7.1 ± 0.8 (≈ 24.2 µM) | – | Mycelium Growth Inhibition (I), % (Ascosphaera apis): 91%
2 | CC12OOC(C)(OO1)C2C12CC3CC(CC(C3)C1)C2 (centres unmarked) [Compound 6, 7-(Adamantan-1-yl)-1,4-dimethyl-2,3,5,6-tetraoxabicyclo[2.2.1]heptane] | 94 | 1.6 ± 0.1 (≈ 6.01 µM) | 130 to 131 | –
3 | COc1ccc(C23OOC4(C)OC(C)(CCC42)O3)cc1 (centres unmarked) [Compound 7, 3-(4-Methoxyphenyl)-6,7a-dimethyltetrahydro-3H,4H-3,6-epoxy[1,2]dioxolo[3,4-b]pyran] | 53 | – | 89 to 90 | –
4 | C=CCC1(C(=O)OCC)CCC2(C)OOC1(C)O2 (centres unmarked) [Compound 1, Ethyl-2-allyl-1,5-dimethyl-6,7,8-trioxabicyclo[3.2.1]octane-2-carboxylate] | 94 | 4 ± 0.2 (≈ 15.6 µM) | – | –
5 | CCCC(Cn1cncn1)c1ccc(Cl)cc1Cl (centres unmarked) [penconazole] | – | – | – | Ability of bumblebees to fly in the contact action test [1]: did not affect the ability to fly; Decrease of the ability of bumblebees to fly after consumption of sugar syrup [1]: 1.3 times; Bumblebee mortality after consumption of syrup with commercial fungicide [2]: had not increased; Bumblebee mortality in contact with commercial fungicide [3]: had not increased
6 | CCCCCC(=O)O[C@H]1C(=O)c2c(O)cc(O)cc2O[C@@H]1c1ccccc1 [Pinobanksin-3-hexanoate] | – | – | – | IC50 (A. apis [4]): 23 ± 2 µM
7 | COc1ccc(C(=O)/C=C/c2ccc(O)cc2)c(O)c1CC=C(C)C [4-hydroxyderricin] | – | – | – | MIC against A. apis (A. apis [5]): 6.25 µg/mL (≈ 18.5 µM)
8 | CO/N=C(/C(=O)OC)c1ccccc1COc1ccccc1C [Kresoxim-methyl 10, Kresoxim-methyl] | < 100 | < 1 | – | Mycelium Growth Inhibition (I), % (Ascosphaera apis): 88%; Mycelium Growth Inhibition (I), % (Ascosphaera apis; listed as Kresoxim-methyl): did not completely inhibit
9 | C=CCC12CCC3(C)OC1(C)OOC2(C)O3 [Compound 8, 3a-Allyl-3,6,7a-trimethyltetrahydro-3H,4H-3,6-epoxy[1,2]-dioxolo[3,4-b]pyran] | 25 | – | 43 to 44 | –
10 | CC1COC(Cn2cncn2)(c2ccc(Oc3ccc(Cl)cc3)cc2Cl)O1 (centres unmarked) [difenoconazole] | – | – | – | Ability of bumblebees to fly in the contact action test [1]: did not affect the ability to fly; Decrease of the ability of bumblebees to fly after consumption of sugar syrup [1]: 1.4 times; Bumblebee mortality after consumption of syrup with commercial fungicide [2]: had not increased; Bumblebee mortality in contact with commercial fungicide [3]: had not increased
